The results in this text go back to paper PMC8371461 (Frontiers in Pharmacology, 2021).

One assay has as its target T1, MEK1 (Homo sapiens, UniProt Q02750).
T1 construct: purchased DiscoverX (KINOMEscan)
The assay can be described thus: kinome scan. It is filed as binding. Particulars: 10 µM.

The next assay deals with T2, CTK (Homo sapiens, UniProt P42679).
T2 construct: purchased DiscoverX (KINOMEscan)
The assay can be described thus: kinome scan. It is filed as binding. Conditions: 10 µM.

In another assay the target is Abelson (Abl) (Homo sapiens, UniProt P00519). The assay can be described thus: Milano activity test. It is filed as biochemical. Conditions: wild-type Abl; for Milano activity test: up to 100 µM.
The target of a further assay is T3, TNIK (Homo sapiens, UniProt Q9UKE5).
T3 construct: purchased DiscoverX (KINOMEscan)
The assay can be described thus: kinome scan. It is filed as binding. Conditions: 10 µM.

The target of the next assay is T4, MST2 (Homo sapiens, UniProt Q13188).
T4 construct: purchased DiscoverX (KINOMEscan)
The assay can be described thus: kinome scan. Conditions: 10 µM. It is filed as binding.

The next assay concerns the target T5, MEK4 (Homo sapiens, UniProt P45985).
T5 construct: purchased DiscoverX (KINOMEscan)
The experiment in a line: kinome scan. Particulars: 10 µM. It is filed as binding.

Assay [1] deals with T6, RSK4(Kin.Dom.1-N-terminal) (Homo sapiens, UniProt Q9UK32).
T6 construct: RSK4(Kin.Dom.1-N-terminal); purchased DiscoverX (KINOMEscan)
The assay can be described thus: kinome scan. It is filed as binding. Conditions: 10 µM.

The target of another assay is T7, MARK2 (Homo sapiens, UniProt Q7KZI7).
T7 construct: purchased DiscoverX (KINOMEscan)
The experiment in a line: kinome scan. It is filed as binding. Conditions: 10 µM.

The target in assay [2] is T8, RPS6KA5(Kin.Dom.2-C-terminal) (Homo sapiens, UniProt O75582).
T8 construct: RPS6KA5(Kin.Dom.2-C-terminal); purchased DiscoverX (KINOMEscan)
The experiment in a line: kinome scan. It is filed as binding. Particulars: 10 µM.

In assay [3] the target is T9, RSK3(Kin.Dom.1-N-terminal) (Homo sapiens, UniProt Q15349).
T9 construct: RSK3(Kin.Dom.1-N-terminal); purchased DiscoverX (KINOMEscan)
The assay can be described thus: kinome scan. In kind it is binding. Conditions: 10 µM.

Another assay addresses T10, MAP4K5 (Homo sapiens, UniProt Q9Y4K4).
T10 construct: purchased DiscoverX (KINOMEscan)
The experiment in a line: kinome scan. It is filed as binding. Particulars: 10 µM.

The next assay has as its target T11, MYO3B (Homo sapiens, UniProt Q8WXR4).
T11 construct: purchased DiscoverX (KINOMEscan)
The assay can be described thus: kinome scan. Conditions: 10 µM. In kind it is binding.

A further assay deals with T12, ULK3 (Homo sapiens, UniProt Q6PHR2).
T12 construct: purchased DiscoverX (KINOMEscan)
The experiment in a line: kinome scan. In kind it is binding. Conditions: 10 µM.

For assay [4], the target named is Proto-oncogen Ser/Thr kinase PIM1 (PIM1) (Homo sapiens, UniProt P11309). The assay can be described thus: Dundee activity test. It is filed as biochemical. An excerpt:
(§1) In silico inverse screening is a ligand-driven methodology aiming at identifying a specific target for a given ligand. […] Table 2 contains for each kinase the name and acronym, the PDB identifier of the best-ranked structure, the ranking position in percent, the heavy atom RMSD of the co-crystallized ligand as a control, and the experimental confirmation from the kinome scan by Ambit Biosciences (http://www.ambitbio.com/) performed at the University of Dundee according to a previously described procedure ([Bain et al., 2003]).

Assay [5] deals with Mitogen-activating protein kinase interacting Ser/Thr kinase (MNK2) (Homo sapiens, UniProt Q9HBH9). The experiment in a line: Dundee activity test. In kind it is biochemical.
Text: as §1

The target in another assay is T13, YANK2 (Homo sapiens, UniProt Q9NY57).
T13 construct: purchased DiscoverX (KINOMEscan)
The experiment in a line: kinome scan. It is filed as binding. Conditions: 10 µM.

For the next assay, the target named is T14, CDKL2 (Homo sapiens, UniProt Q92772).
T14 construct: purchased DiscoverX (KINOMEscan)
The experiment in a line: kinome scan. In kind it is binding. Particulars: 10 µM.

A further assay concerns the target T15, DAPK2 (Homo sapiens, UniProt Q9UIK4).
T15 construct: purchased DiscoverX (KINOMEscan)
The assay can be described thus: kinome scan. In kind it is binding. Particulars: 10 µM.

Assay [6] deals with T16, RPS6KA5(Kin.Dom.1-N-terminal) (Homo sapiens, UniProt O75582).
T16 construct: RPS6KA5(Kin.Dom.1-N-terminal); purchased DiscoverX (KINOMEscan)
The assay can be described thus: kinome scan. In kind it is binding. Particulars: 10 µM.

Sequence of Abelson (Abl) (P00519 whole entry, species assumed): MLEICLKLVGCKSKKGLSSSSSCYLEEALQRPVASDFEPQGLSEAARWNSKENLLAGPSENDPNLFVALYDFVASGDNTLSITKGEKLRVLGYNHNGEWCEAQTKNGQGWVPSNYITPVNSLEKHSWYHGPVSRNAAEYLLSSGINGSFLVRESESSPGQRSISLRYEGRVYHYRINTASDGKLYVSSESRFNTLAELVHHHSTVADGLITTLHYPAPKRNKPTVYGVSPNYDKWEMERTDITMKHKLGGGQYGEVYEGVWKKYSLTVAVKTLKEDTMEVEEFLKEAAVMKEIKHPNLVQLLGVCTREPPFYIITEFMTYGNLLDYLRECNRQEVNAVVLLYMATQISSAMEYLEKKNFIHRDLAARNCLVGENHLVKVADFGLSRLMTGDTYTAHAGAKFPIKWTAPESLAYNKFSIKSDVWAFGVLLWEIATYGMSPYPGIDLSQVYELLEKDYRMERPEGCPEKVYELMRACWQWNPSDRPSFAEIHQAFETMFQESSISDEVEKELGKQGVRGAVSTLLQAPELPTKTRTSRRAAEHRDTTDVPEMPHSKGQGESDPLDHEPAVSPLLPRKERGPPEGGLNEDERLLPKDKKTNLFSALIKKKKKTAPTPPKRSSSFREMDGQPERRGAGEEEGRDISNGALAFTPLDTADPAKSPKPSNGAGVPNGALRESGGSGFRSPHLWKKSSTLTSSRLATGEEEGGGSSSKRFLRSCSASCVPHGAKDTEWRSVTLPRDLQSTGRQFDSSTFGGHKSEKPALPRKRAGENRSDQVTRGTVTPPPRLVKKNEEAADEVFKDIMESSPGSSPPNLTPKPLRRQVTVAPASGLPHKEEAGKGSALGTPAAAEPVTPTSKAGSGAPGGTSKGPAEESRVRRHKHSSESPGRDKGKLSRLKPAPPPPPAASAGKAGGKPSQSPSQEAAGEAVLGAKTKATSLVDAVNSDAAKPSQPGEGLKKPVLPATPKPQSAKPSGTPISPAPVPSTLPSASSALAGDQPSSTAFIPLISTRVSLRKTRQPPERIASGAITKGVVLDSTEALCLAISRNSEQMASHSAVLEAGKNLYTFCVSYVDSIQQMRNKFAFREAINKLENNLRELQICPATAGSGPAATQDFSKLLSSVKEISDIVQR
T9 sequence (Q15349 59-318 limits assumed): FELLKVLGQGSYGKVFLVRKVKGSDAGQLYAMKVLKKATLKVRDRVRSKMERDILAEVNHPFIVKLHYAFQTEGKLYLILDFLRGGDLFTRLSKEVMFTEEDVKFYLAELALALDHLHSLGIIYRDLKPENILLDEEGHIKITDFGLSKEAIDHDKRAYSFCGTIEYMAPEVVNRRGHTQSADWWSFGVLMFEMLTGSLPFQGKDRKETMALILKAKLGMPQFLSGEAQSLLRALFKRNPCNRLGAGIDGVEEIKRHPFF
T13 sequence (Q9NY57 whole entry): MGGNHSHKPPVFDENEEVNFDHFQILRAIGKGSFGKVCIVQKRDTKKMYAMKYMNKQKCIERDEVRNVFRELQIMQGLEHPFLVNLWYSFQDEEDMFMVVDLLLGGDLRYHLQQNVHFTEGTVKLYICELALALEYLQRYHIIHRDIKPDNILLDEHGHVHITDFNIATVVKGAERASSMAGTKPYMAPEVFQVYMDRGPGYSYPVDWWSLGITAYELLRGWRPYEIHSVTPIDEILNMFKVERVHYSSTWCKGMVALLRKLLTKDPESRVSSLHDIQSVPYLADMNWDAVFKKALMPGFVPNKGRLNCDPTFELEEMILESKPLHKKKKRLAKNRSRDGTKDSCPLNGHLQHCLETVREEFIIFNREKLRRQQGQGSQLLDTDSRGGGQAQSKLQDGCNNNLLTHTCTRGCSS
T2 sequence (P42679 whole entry): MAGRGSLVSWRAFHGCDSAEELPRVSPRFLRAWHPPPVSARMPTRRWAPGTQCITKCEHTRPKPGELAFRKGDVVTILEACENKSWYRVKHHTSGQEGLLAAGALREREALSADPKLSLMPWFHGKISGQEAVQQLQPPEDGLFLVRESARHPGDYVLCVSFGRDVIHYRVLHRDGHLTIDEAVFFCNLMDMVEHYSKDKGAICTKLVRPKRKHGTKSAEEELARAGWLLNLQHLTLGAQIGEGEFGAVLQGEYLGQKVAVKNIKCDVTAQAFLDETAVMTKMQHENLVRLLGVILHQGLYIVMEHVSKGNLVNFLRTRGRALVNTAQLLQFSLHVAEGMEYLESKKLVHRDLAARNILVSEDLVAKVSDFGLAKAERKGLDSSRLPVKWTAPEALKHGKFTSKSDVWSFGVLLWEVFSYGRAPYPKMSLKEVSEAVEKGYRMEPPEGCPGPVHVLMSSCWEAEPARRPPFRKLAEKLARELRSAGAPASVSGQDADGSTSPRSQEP
T14 sequence (Q92772 whole entry): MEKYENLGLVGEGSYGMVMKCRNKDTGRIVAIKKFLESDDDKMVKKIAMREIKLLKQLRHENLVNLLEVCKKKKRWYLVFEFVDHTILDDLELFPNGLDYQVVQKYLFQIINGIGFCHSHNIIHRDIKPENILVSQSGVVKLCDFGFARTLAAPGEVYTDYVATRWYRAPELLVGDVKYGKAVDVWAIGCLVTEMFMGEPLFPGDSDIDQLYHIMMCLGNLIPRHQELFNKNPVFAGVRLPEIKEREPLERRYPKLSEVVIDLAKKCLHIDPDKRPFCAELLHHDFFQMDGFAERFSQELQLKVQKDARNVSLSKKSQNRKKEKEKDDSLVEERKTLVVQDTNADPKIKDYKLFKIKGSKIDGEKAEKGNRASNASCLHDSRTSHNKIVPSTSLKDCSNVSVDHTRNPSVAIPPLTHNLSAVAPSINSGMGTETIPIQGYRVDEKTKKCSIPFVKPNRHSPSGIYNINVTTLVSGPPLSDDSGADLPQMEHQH
T12 sequence (Q6PHR2 whole entry): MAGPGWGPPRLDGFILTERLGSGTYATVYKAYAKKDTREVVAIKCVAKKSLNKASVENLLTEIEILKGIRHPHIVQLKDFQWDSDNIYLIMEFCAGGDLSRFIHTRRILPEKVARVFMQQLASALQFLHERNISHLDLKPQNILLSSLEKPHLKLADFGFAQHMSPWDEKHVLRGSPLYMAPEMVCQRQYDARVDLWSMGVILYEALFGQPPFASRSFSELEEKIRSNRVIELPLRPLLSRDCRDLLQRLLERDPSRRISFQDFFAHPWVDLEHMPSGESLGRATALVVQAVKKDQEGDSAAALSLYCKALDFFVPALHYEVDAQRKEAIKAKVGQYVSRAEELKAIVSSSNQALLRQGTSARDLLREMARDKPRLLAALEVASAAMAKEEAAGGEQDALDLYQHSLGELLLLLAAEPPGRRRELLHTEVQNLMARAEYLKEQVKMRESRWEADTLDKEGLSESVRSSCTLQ
T8 sequence (O75582 426-687 limits assumed): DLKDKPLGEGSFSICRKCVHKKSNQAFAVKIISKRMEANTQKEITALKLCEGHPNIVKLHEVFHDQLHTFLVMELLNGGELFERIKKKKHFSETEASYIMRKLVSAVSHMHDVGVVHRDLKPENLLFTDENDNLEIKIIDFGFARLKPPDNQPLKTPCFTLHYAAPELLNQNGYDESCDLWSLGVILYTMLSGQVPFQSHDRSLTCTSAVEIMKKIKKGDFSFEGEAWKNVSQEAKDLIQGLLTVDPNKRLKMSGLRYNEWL
T15 sequence (Q9UIK4 whole entry): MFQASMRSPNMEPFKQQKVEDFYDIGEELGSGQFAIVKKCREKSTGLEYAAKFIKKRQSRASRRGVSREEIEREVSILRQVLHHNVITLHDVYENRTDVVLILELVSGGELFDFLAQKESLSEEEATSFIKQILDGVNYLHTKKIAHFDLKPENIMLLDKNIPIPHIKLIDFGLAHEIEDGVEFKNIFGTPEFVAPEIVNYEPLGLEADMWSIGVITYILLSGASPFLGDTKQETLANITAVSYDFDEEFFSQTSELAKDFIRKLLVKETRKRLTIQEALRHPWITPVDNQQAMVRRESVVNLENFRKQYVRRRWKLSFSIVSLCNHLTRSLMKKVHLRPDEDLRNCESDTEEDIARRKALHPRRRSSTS
T4 sequence (Q13188 whole entry): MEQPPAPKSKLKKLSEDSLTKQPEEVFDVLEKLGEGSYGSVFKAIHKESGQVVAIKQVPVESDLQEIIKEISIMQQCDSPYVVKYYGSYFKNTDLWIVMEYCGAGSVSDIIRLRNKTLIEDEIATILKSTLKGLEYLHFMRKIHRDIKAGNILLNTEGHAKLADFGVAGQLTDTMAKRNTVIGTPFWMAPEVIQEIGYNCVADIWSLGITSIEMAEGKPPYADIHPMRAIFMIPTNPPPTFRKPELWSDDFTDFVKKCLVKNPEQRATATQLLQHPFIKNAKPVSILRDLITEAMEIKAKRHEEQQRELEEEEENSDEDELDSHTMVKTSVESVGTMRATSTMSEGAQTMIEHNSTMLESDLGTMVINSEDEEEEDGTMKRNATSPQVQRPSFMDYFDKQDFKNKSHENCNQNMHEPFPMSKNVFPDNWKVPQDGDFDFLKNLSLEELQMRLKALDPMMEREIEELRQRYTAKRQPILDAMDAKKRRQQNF
T5 sequence (P45985 whole entry): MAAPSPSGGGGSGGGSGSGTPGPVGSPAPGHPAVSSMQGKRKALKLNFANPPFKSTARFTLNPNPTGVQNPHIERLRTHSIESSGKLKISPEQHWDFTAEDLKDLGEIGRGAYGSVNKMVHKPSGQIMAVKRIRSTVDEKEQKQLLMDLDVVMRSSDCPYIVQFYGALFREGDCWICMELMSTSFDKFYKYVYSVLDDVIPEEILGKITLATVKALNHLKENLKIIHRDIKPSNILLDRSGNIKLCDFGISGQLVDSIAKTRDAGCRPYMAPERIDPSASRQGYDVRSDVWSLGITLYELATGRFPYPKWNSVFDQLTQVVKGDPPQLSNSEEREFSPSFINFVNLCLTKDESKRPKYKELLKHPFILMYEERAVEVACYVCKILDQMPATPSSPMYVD

As a reminder, the inhibition is the drop in the measured response relative to a control, in per cent. On to `Nc1ccc(N=Nc2ccccc2)c(N)n1` [phenazopyridine, 2,6-diamino-3-(phenylazo)pyridine], for which the kinase inhibition at MEK1 turned out to be 99; on CTK it was 98; at TNIK, 75; at MST2 it was 73; at MEK4, 48; in assay [1], 86. For the same compound, the kinase inhibition was 100 at MARK2; 100 in [2]; 100 in assay [3]; 100 at MAP4K5; 95 at MYO3B; 100 on ULK3. Also, the kinase inhibition on YANK2 stood at 90; on CDKL2 it was 85; at DAPK2 it was 100; in assay [6], 100. The inhibition at 500 µM at Abelson (Abl) (500 µM, data not shown) worked out at 35%. Further, the Milano activity test result on Abelson (Abl) was “not inhibited”; at Abelson (Abl) (listed as Phenazopyridine) it was “Phenazopyridine is inactive at 100 µM”. Moreover, the remaining activity at 10 µM was determined as 49% in assay [4] and 20% in [5].
